This note sets out measurements from ChEMBL document CHEMBL1201862, “PubChem BioAssay data set” (2004).

Assay [1] is described as follows: Luminescence Cell-Based Dose Retest to Confirm Inhibitors of Cancer Stem Cells. [Related pubchem assays (depositor defined):AID2717, AID2721]. As to conditions: Homo sapiens. Type of assay: functional.
Assay [2] concerns the target Neurotensin receptor type 1 (Homo sapiens, UniProt P30989). Type of assay: functional.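 Note: Image-based confirmatory dose-response assay measuring agonist activity at NTR1; NTR1-expressing U2OS osteosarcoma cells imaged for beta-arrestin GFP spot formation; agonist potency where compounds increase beta-arrestin recruitment.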
Assay [3] can be described thus: microbe, parasite or virus in culture. Type of assay: functional. As to conditions: Mycobacterium tuberculosis.
Assay [4] in a line: viability of PTEN-deleted HCT116 cells – cell-based, HCT116 PTEN knockout, dose response (AID 1047).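 Note: HCT116 colon tumor cells with PTEN knocked out; cells exposed to compound for 60 hours before readout; potency for loss of cell viability measured by luminescence.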 The assay is classed as functional.
Assay [5] is described as follows: viability of HCT116 lacking mutant beta-catenin – cell-based, human colon tumor, dose response (AID 1045).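 Note: HCT116 colon tumor cells with beta catenin knocked out; cells exposed to compound for 60 hours.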 The assay is classed as functional.
For assay [6], the target named is DNA dC->dU-editing enzyme APOBEC-3A (Homo sapiens, UniProt P31941). The experiment in a line: A3A deaminase inhibition for selectivity – biochemical, dose response (AID 504722). The assay is classed as functional.
DNA dC->dU-editing enzyme APOBEC-3A, sequence (P31941 whole entry): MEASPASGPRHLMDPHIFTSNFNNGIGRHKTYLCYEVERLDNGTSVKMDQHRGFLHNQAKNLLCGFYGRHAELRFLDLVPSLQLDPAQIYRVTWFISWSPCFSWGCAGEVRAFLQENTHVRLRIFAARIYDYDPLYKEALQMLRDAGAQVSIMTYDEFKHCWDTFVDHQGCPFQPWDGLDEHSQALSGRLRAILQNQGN
In assay [7] the target is T1, Zinc finger protein mex-5 (Caenorhabditis elegans, UniProt Q9XUB2).
T1 sequence (Q9XUB2 whole entry): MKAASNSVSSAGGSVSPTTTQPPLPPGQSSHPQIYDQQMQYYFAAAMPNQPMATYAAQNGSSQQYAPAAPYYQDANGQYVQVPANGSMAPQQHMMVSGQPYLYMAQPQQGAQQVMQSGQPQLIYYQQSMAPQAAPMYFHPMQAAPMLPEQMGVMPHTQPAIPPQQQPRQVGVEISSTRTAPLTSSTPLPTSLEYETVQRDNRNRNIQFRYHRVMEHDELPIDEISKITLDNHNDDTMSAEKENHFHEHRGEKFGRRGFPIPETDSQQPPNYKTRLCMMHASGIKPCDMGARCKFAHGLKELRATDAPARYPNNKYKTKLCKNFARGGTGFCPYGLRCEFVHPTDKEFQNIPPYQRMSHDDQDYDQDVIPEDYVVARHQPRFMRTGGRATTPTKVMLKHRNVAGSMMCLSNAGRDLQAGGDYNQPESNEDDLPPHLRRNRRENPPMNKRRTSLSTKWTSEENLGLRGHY
The experiment in a line: potency of MEX-5 RNA-binding blockers – biochemical, C. elegans, fluorescence polarization, dose response (AID 1960). (Polarisation of emitted light reports the rotation of a fluorescent probe.)

The target in assay [8] is 1-acylglycerol-3-phosphate O-acyltransferase ABHD5/Perilipin-5 (Homo sapiens, UniProt Q00G26+Q8WTS1). Kind of assay: Luminescence-based biochemical high throughput dose response assay for inhibitors of the interaction of the lipase co-activator protein, abhydrolase domain containing 5 (ABHD5) with perilipin-5 (MLDP; PLIN5) (2K validation set). [Related pubchem assays (depositor defined):AID493035, AID493241].
1-acylglycerol-3-phosphate O-acyltransferase ABHD5/Perilipin-5, sequence (Q00G26 whole entry, the tested form may be a part): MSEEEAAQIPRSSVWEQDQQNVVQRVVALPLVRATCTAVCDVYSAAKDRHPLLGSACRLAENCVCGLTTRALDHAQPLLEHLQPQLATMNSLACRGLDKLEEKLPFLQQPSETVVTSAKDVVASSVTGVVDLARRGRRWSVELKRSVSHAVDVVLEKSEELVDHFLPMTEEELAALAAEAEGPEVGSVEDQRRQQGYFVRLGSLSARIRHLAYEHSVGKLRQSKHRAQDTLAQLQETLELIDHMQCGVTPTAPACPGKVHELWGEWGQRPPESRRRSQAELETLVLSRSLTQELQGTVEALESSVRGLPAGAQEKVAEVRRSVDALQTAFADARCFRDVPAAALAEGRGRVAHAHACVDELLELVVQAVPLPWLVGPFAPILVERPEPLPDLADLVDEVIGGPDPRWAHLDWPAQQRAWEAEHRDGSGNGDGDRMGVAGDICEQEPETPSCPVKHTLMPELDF
1-acylglycerol-3-phosphate O-acyltransferase ABHD5/Perilipin-5, sequence (Q8WTS1 whole entry, the tested form may be a part): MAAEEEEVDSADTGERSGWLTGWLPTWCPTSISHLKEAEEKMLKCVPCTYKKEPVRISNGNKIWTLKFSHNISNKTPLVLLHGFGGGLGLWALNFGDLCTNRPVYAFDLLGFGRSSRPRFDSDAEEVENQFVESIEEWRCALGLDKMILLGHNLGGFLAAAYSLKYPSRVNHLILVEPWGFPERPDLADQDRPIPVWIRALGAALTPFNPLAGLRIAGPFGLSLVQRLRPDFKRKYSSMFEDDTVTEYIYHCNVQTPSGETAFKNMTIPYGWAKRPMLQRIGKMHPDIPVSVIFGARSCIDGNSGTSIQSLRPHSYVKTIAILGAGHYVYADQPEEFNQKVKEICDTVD

Assay [9] addresses Induced myeloid leukemia cell differentiation protein Mcl-1 (Homo sapiens, UniProt Q07820). Type of assay: functional.
For the next assay, the target named is Hexokinase HKDC1 (Homo sapiens, UniProt Q2TB90). Kind of assay: inhibition of HKDC1 glucose phosphorylation – biochemical, W721R variant, dose response (AID 504729). Type of assay: functional.
Hexokinase HKDC1, sequence (Q2TB90 whole entry): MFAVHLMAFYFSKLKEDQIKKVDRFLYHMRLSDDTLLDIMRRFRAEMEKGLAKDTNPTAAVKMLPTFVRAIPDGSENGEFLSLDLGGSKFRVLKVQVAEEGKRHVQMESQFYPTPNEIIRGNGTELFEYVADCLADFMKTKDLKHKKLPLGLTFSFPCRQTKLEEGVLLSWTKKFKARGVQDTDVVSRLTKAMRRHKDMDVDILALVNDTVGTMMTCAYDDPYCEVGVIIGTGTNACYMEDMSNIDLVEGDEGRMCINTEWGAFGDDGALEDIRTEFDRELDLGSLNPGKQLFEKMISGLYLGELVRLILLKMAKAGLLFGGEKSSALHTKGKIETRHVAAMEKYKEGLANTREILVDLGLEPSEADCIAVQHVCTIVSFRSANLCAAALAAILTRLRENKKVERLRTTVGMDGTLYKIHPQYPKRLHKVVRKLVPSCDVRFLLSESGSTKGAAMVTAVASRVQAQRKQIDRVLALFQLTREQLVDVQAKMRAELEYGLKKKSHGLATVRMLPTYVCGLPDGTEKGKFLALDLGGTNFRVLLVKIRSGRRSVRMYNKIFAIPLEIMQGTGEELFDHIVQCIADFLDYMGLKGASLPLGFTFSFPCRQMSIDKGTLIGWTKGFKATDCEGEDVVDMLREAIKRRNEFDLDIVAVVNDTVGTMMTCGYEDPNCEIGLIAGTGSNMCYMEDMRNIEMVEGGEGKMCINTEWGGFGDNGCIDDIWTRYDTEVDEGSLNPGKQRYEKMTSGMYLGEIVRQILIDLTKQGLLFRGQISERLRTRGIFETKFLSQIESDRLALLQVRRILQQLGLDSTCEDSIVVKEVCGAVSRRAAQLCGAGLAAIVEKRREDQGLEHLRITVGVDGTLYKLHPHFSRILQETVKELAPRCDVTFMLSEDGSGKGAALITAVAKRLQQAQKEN
Assay [10] has as its target T2, RNA-binding protein pos-1 (Caenorhabditis elegans, UniProt G5EF15).
T2 sequence (G5EF15 whole entry): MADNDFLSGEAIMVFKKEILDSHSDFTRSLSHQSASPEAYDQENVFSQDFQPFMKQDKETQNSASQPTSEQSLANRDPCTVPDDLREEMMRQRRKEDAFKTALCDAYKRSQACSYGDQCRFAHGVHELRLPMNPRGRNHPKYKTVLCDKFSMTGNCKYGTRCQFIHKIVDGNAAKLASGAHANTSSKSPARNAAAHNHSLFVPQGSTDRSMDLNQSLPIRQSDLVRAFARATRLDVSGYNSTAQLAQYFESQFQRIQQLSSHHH
Kind of assay: disruptors of C. elegans POS-1 RNA interaction – biochemical, fluorescence polarization, dose response (AID 1964).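 Note: purified POS-1 fused to maltose binding protein made in E. coli; potency of compounds blocking POS-1 binding to fluorescent RNA.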

The next assay concerns the target Perilipin-1/ABHD5 (Homo sapiens, UniProt O60240+Q8WTS1). The experiment in a line: Luminescence-based biochemical high throughput dose response assay for inhibitors of the interaction of the lipase co-activator protein, abhydrolase domain containing 5 (ABHD5) with perilipin-1 (PLIN1) (2K validation set). [Related pubchem assays (depositor defined):AID493027, AID493057].

Assay [11] deals with DNA dC->dU-editing enzyme APOBEC-3G (Homo sapiens, UniProt Q9HC16). Kind of assay: Dose Response confirmation of small molecule APOBEC3G DNA Deaminase Inhibitors via a fluorescence-based single-stranded DNA deaminase assay. [Related pubchem assays (depositor defined):AID493012, AID493028]. Type of assay: functional.
DNA dC->dU-editing enzyme APOBEC-3G, sequence (Q9HC16 whole entry): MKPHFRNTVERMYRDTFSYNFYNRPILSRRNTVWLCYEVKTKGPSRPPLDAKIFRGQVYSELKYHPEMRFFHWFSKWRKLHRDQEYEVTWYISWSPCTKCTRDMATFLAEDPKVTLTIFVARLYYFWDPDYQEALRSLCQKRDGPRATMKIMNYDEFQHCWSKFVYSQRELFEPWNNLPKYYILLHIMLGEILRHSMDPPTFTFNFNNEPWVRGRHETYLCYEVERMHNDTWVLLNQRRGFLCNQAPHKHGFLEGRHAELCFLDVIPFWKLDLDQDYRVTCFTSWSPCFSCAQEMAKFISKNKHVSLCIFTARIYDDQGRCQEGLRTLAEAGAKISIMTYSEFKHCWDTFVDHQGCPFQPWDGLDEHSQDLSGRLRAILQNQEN
The next assay concerns the target Beta-galactosidase (Escherichia coli, UniProt Q8VNN2). Kind of assay: detection-enzyme interference by beta-gal modulators – biochemical, E. coli enzyme, set 3, artefact control for CCR6 antagonist project, dose response (AID 504712). Type of assay: functional.

Activity calls are given as the source filed them.
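Throughout, for AC50: cells exposed to compound for roughly 70 hours or longer before luminescence read.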

Perilipin-1/ABHD5, sequence (Q8WTS1 whole entry, the tested form may be a part): as the sequence (Q8WTS1 whole entry, the tested form may be a part) above
Perilipin-1/ABHD5, sequence (O60240 whole entry, the tested form may be a part): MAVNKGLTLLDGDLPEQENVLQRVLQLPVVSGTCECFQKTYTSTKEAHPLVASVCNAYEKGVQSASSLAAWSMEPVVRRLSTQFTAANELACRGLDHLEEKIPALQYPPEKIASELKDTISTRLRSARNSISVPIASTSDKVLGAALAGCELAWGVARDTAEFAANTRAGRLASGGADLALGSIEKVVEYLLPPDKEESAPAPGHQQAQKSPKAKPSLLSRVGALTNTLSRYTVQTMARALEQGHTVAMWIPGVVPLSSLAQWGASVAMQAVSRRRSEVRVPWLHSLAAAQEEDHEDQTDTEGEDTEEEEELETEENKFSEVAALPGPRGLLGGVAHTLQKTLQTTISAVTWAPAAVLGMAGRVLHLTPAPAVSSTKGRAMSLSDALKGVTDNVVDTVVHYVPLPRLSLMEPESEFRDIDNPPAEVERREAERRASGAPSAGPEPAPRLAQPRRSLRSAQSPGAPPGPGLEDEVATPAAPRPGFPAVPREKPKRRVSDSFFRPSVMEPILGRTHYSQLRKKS
Neurotensin receptor type 1, sequence (P30989 whole entry): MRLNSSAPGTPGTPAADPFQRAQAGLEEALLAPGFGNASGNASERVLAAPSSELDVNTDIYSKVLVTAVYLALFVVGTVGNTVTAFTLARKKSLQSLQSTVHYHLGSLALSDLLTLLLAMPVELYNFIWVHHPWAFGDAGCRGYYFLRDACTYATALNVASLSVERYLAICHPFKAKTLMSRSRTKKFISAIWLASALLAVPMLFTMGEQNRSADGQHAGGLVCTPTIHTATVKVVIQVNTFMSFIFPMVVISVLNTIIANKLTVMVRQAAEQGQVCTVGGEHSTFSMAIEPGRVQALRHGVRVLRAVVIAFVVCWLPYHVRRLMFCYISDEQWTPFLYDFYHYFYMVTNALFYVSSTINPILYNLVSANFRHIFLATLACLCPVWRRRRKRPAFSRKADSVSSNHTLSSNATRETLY
Beta-galactosidase, sequence (Q8VNN2 whole entry): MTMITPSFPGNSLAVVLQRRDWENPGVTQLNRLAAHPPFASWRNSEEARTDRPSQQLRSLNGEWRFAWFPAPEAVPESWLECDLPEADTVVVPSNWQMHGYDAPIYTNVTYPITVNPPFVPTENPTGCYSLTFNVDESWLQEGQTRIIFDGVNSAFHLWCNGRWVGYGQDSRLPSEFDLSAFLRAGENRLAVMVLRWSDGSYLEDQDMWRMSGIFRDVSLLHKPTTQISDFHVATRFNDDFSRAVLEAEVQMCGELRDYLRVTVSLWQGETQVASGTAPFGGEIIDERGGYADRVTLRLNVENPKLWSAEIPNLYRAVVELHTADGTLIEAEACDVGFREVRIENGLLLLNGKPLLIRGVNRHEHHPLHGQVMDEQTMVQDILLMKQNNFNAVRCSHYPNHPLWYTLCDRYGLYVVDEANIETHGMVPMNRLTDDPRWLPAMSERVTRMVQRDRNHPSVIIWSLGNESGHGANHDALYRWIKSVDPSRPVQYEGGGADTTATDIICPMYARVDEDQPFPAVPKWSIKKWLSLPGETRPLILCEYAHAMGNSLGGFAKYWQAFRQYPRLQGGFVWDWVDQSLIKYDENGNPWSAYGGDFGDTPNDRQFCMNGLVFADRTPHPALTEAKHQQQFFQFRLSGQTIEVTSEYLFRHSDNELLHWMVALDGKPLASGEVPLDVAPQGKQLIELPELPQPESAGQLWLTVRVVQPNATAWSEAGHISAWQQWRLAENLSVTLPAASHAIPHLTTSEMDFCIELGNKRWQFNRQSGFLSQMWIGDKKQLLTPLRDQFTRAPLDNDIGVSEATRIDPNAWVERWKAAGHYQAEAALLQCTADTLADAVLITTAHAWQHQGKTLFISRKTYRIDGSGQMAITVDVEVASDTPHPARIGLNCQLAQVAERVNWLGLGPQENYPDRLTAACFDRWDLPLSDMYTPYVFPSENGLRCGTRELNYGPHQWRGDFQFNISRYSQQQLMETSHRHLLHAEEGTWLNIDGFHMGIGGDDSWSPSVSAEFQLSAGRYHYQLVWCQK
Induced myeloid leukemia cell differentiation protein Mcl-1, sequence (Q07820 whole entry): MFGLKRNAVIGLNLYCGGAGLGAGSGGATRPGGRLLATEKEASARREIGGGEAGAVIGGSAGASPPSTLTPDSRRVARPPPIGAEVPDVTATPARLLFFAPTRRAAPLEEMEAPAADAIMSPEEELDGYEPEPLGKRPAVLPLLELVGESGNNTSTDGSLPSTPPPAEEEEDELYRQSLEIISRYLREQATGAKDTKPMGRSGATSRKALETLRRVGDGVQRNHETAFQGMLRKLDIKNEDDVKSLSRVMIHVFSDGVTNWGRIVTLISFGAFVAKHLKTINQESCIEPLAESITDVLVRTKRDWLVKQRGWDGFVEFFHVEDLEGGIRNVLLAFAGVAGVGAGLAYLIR

Turning to `c1ccc(CN2CCC(Nc3nc(-c4ccccc4)nc4ccccc34)CC2)cc1`, the AC50 in assay [1] is 5.72 µM (active). The EC50 in assay [2] was 19.6 µM (active); in [4], 12.3 µM (active); in assay [5], 9.69 µM (active). In addition, the CC50 in [3] was 20.3 µM (active).
In the case of `O=C1C=CC(=O)C(C2=C3C(=O)N(CCc4ccccc4)CC(=O)N3CCC2)=C1`, the IC50 in [6] is > 100 µM (inactive); in [8] it was 5.72 µM (active); in assay [9], 4.75 µM (not active); at Hexokinase HKDC1, 3.73 µM (active); on Perilipin-1/ABHD5, 4.37 µM (active); in assay [11] it was 8.15 µM (active). Also, the IC50 on Beta-galactosidase was > 66.6 µM (inactive). The EC50 in [7] is 14.9 µM (inconclusive); in [10] it was 45.9 µM (active).

As a reminder, the AC50 is the midpoint of the concentration-response curve, whichever way the signal moves. For orientation: EC50 means the concentration giving half of the maximal effect. In general, IC50 refers to the concentration that inhibits the measured activity by half.
